Results reported in patent US8987265B2, “Substituted 1,3,5-triazine derivatives of fused bicyclic oxalamide compounds for treatment of Hepatitis C” (priority 2012, dated 2015).

system: HCV pseudoparticles, genotype 1a (H77C) E1 and E2 envelope; assay: HCV pseudoparticle infection assay (luciferase, Huh7 cells); type: cell-based; settings: Hepatitis C virus, Huh-7, 48 h, read-out: EC50 (nM) 1a (H77C)

| SMILES | EC50 [nM] |
| --- | --- |
| Cc1cc(NC(=O)C(=O)N2CC3CN(C(=O)c4ccc(Nc5nc(NC6(c7ccc(Cl)cc7)CC6)nc(OCC(F)(F)F)n5)cc4)CC3C2)no1 (centres unmarked) [Compound 1009] | 0.01 to 10 |
| CC(C)CNC(=O)C(=O)N1CC2CN(C(=O)c3ccc(Nc4nc(NC5(c6ccc(Cl)cc6)CC5)nc(OCC(F)(F)F)n4)cc3)CC2C1 (centres unmarked) [Compound 1012] | 0.01 to 10 |
| O=C(Nc1ccccc1)C(=O)N1CC2CN(C(=O)c3ccc(Nc4nc(NC5(c6ccc(Cl)cc6)CC5)nc(OCC(F)(F)F)n4)cc3)CC2C1 (centres unmarked) [Compound 1011] | 0.01 to 10 |
| O=C(Nc1cc(F)cc(F)c1)C(=O)N1CC2CN(C(=O)c3ccc(Nc4nc(NC5(c6ccc(Cl)cc6)CC5)nc(OCC(F)(F)F)n4)cc3)CC2C1 (centres unmarked) [Compound 1010] | 0.01 to 10 |
| O=C(Nc1cccc(F)c1)C(=O)N1CC2CN(C(=O)c3ccc(Nc4nc(NC5(c6ccc(Cl)cc6)CC5)nc(OCC(F)(F)F)n4)cc3)CC2C1 (centres unmarked) [Compound 1006] | 0.01 to 10 |
| O=C(Nc1ccc(F)cc1F)C(=O)N1CC2CN(C(=O)c3ccc(Nc4nc(NC5(c6ccc(Cl)cc6)CC5)nc(OCC(F)(F)F)n4)cc3)CC2C1 (centres unmarked) [Compound 1018] | 0.01 to 10 |
| Cc1ccc(NC(=O)C(=O)N2CC3CN(C(=O)c4ccc(Nc5nc(NC6(c7ccc(Cl)cc7)CC6)nc(OCC(F)(F)F)n5)cc4)CC3C2)cc1 (centres unmarked) [Compound 1001] | 0.01 to 10 |
| Cc1nnc(NC(=O)C(=O)N2CC3CN(C(=O)c4ccc(Nc5nc(NC6(c7ccc(Cl)cc7)CC6)nc(OCC(F)(F)F)n5)cc4)CC3C2)s1 (centres unmarked) [Compound 1016] | 0.01 to 10 |
| O=C(C(=O)N1CC2CN(C(=O)c3ccc(Nc4nc(NC5(c6ccc(Cl)cc6)CC5)nc(OCC(F)(F)F)n4)cc3)CC2C1)N1CCCCC1 (centres unmarked) [Compound 1013] | 0.01 to 10 |
| O=C(Nc1nncs1)C(=O)N1CC2CN(C(=O)c3ccc(Nc4nc(NC5(c6ccc(Cl)cc6)CC5)nc(OCC(F)(F)F)n4)cc3)CC2C1 (centres unmarked) [Compound 1007] | 0.01 to 10 |
| O=C(C(=O)N1CC2CN(C(=O)c3ccc(Nc4nc(NC5(c6ccc(Cl)cc6)CC5)nc(OCC(F)(F)F)n4)cc3)CC2C1)N1CCc2ccccc2C1 (centres unmarked) [Compound 1014] | 0.01 to 10 |
| O=C(C(=O)N1CC2CN(C(=O)c3ccc(Nc4nc(NC5(c6ccc(Cl)cc6)CC5)nc(OCC(F)(F)F)n4)cc3)CC2C1)N1CCOCC1 (centres unmarked) [Compound 1004] | 0.01 to 10 |
| NC(=O)C(=O)N1CC2CN(C(=O)c3ccc(Nc4nc(NC5(c6ccc(Cl)cc6)CC5)nc(OCC(F)(F)F)n4)cc3)CC2C1 (centres unmarked) [Compound 1003] | 0.01 to 10 |
| CN(C)C(=O)C(=O)N1CC2CN(C(=O)c3ccc(Nc4nc(NC5(c6ccc(Cl)cc6)CC5)nc(OCC(F)(F)F)n4)cc3)CC2C1 (centres unmarked) [Compound 1005] | 0.01 to 10 |
| O=C(NC1CCCCC1)C(=O)N1CC2CN(C(=O)c3ccc(Nc4nc(NC5(c6ccc(Cl)cc6)CC5)nc(OCC(F)(F)F)n4)cc3)CC2C1 (centres unmarked) [Compound 1015] | 0.01 to 10 |
| CCc1nnc(NC(=O)C(=O)N2CC3CN(C(=O)c4ccc(Nc5nc(NC6(c7ccc(Cl)cc7)CC6)nc(OCC(F)(F)F)n5)cc4)CC3C2)s1 (centres unmarked) [Compound 1019] | 0.01 to 10 |
| CNC(=O)C(=O)N1CC2CN(C(=O)c3ccc(Nc4nc(NC5(c6ccc(Cl)cc6)CC5)nc(OCC(F)(F)F)n4)cc3)CC2C1 (centres unmarked) [Compound 1017] | 10 to 1000 |
| O=C(NCc1ccc(F)cc1)C(=O)N1CC2CN(C(=O)c3ccc(Nc4nc(NC5(c6ccc(Cl)cc6)CC5)nc(OCC(F)(F)F)n4)cc3)CC2C1 (centres unmarked) [Compound 1002] | 0.01 to 10 |
| O=C(Nc1nccs1)C(=O)N1CC2CN(C(=O)c3ccc(Nc4nc(NC5(c6ccc(Cl)cc6)CC5)nc(OCC(F)(F)F)n4)cc3)CC2C1 (centres unmarked) [Compound 1020] | 0.01 to 10 |
| O=C(Nc1ccc(F)cc1)C(=O)N1CC2CN(C(=O)c3ccc(Nc4nc(NC5(c6ccc(Cl)cc6)CC5)nc(OCC(F)(F)F)n4)cc3)CC2C1 (centres unmarked) [Compound 1008] | 0.01 to 10 |

same assay, conditions: Hepatitis C virus, Huh-7, 48 h, read-out: EC50 (nM) 1a H77C)

| SMILES | EC50 [nM] |
| --- | --- |
| Cc1ccc(NC(=O)C(=O)N2CC3CN(C(=O)c4ccc(Nc5nc(NC6(c7ccc(Cl)cc7)CC6)nc(OCC(F)(F)F)n5)cc4)CC3C2)cc1 (centres unmarked) [Compound 1001] | 0.12 |
| CN(C)C(=O)C(=O)N1CC2CN(C(=O)c3ccc(Nc4nc(NC5(c6ccc(Cl)cc6)CC5)nc(OCC(F)(F)F)n4)cc3)CC2C1 (centres unmarked) [Compound 1005] | 2.68 |
| CNC(=O)C(=O)N1CC2CN(C(=O)c3ccc(Nc4nc(NC5(c6ccc(Cl)cc6)CC5)nc(OCC(F)(F)F)n4)cc3)CC2C1 (centres unmarked) [Compound 1017] | 11.1 |
